Experimental findings from patent US11420961B2, “Heterocyclic compounds” (Hoffmann-La Roche Inc., priority 2017, dated 2022) are described below.

Molecules are shown by their SMILES.

One assay addresses T1, MAGL (recombinant wild-type) (Homo sapiens, UniProt Q99685).
T1 sequence (Q99685 1-303): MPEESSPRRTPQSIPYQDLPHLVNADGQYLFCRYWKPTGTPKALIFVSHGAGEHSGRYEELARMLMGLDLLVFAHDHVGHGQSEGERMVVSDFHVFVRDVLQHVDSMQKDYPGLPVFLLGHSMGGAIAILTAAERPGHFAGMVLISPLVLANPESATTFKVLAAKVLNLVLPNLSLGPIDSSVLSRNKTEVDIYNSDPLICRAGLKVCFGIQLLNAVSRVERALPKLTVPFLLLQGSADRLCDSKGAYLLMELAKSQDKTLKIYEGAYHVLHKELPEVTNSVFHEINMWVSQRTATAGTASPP
The assay is described as follows: 4-NPA assay: MAGL inhibitory activity by hydrolysis of 4-nitrophenylacetate, absorbance at 405 nm. The assay is classed as biochemical. The note with it: 4-NPA assay (values without footnote [a]). Summed up:
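Compound (final 25 μM to 1.7 nM, 3-fold steps) was preincubated 15 min at RT with 1 nM MAGL in 50 mM Tris, 1 mM EDTA, then 300 μM 4-nitrophenylacetate was added. A405 was read after 5 min and again 80 min later at RT, and activity was taken as the difference between the two reads.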
For the compound `O=C1COc2ccc(C(=O)N3CCC(c4c[nH]c5cc(C(F)(F)F)ccc45)CC3)cc2N1` [Example 25, 6-[4-[6-(trifluoromethyl)-1H-indol-3-yl]piperidine-1-carbonyl]-4H-1,4-benzoxazin-3-one], the IC50 stood at 29 nM.

Turning to `O=C1COc2ccc(C(=O)N3CCC(C(c4ccccc4)c4cccc(F)c4)CC3)cc2N1` (centres unmarked) [Example 82, 6-[4-[(3-fluorophenyl)-phenyl-methyl]piperidine-1-carbonyl]-4H-1,4-benzoxazin-3-one], the half-maximal inhibitory concentration (IC50) was found to be 0.69 nM.

As to `O=C1COc2ccc(C(=O)N3CCC(C(c4ccc(F)cc4)c4ccc(F)cc4)CC3)cc2N1` [Example 3, 6-[4-[Bis(4-fluorophenyl)methyl]piperidine-1-carbonyl]-4H-1,4-benzoxazin-3-one], the IC50 was 2.03 nM.

Turning to `COc1ccc([C@@H](c2ccccc2)C2CCN(C(=O)c3ccc4c(c3)NC(=O)CO4)CC2)cc1` (single isomer, unassigned) [Example 11], the concentration for half-maximal inhibition (IC50) turned out to be 0.6 nM.

Take `O=C1COc2ccc(C(=O)N3CCC([C@H](c4ccc(F)cc4)c4cccc(OCCF)c4)CC3)cc2N1` [Example 76, 6-[4-[(R)-[3-(2-fluoroethoxy)phenyl]-(4-fluorophenyl)methyl]piperidine-1-carbonyl]-4H-1,4-benzoxazin-3-one]: the IC50 is 0.53 nM.

For the compound `O=C1COc2ccc(C(=O)N3CCC([C@@H](c4ccc(F)cc4)c4cccc(OCCOCCF)c4)CC3)cc2N1` (single isomer, unassigned) [Example 95, 6-[4-[(R or S)-[3-[2-(2-fluoroethoxy)ethoxy]phenyl]-(4-fluorophenyl)methyl]piperidine-1-carbonyl]-4H-1,4-benzoxazin-3-one], the half-inhibitory concentration (IC50) came to 1.4 nM.

A further assay concerns the target T2, MAGL (Homo sapiens, UniProt Q99685).
T2 sequence (Q99685 1-303): T1 sequence (Q99685 1-303)
The assay is described as follows: 2-AG assay: MAGL inhibitory activity by hydrolysis of 2-arachidonoylglycerol to arachidonic acid, mass spectrometry. The note with it: 2-AG assay (values marked [a]). The assay is classed as biochemical. Here is the method:
Alternatively, compounds were profiled for MAGL inhibitory activity by determining the enzymatic activity by following the hydrolysis of the natural substrate, 2-arachidonoylglycerol, resulting in arachidonic acid, which can be followed by mass spectrometry. This assay is hereinafter abbreviated “2-AG assay”.
The 2-AG assay was carried out in 384 well assay plates (PP, Greiner Cat #784201) in a total volume of 20 μL. Compound dilutions were made in 100% DMSO (VWR Chemicals 23500.297) in a polypropylene plate in 3-fold dilution steps to give a final concentration range in the assay from 12.5 μM to […]. 0.25 μL compound dilutions (100% DMSO) were added to 9 μL MAGL in assay buffer (50 mM TRIS (GIBCO, 15567-027), 1 mM EDTA (Fluka, 03690-100 ml), 0.01% (v/v) Tween. After shaking, the plate was incubated for 15 min at RT. To start the reaction, 10 μL 2-arachidonoylglycerol in assay buffer was added. The final concentrations in the assay was […] and 8 μM 2-arachidonoylglyerol. After shaking and 30 min incubation at RT, the reaction was quenched by the addition of 40 μL of acetonitrile containing 4 μM of d8-arachidonic acid. The amount of arachidonic acid was traced by an online SPE system (Agilent Rapidfire) coupled to a triple quadrupole mass spectrometer (Agilent 6460). A C18 SPE cartridge (G9205A) was used in an acetonitrile/water liquid setup. The mass spectrometer was operated in negative electrospray mode following the mass transitions 303.1→259.1 for arachidonic acid and 311.1→267.0 for d8-arachidonic acid. The activity of the compounds was calculated based on the ratio of intensities [arachidonic acid/d8-arachidonic acid].
In the case of `CS(=O)(=O)c1ccc(C(c2ccccc2)C2CCN(C(=O)c3ccc4c(c3)NC(=O)CO4)CC2)cc1` (single isomer, unassigned) [Example 132, 6-[4-[(S or R)-(4-Methylsulfonylphenyl)-phenyl-methyl]piperidine-1-carbonyl]-4H-1,4-benzoxazin-3-one], the IC50 is 0.27 nM.

For `Cn1cc(C(c2ccccc2)C2CCN(C(=O)c3ccc4c(c3)NC(=O)CO4)CC2)cn1` (single isomer, unassigned) [Example 140, 6-[4-[(S or R)-(1-Methylpyrazol-4-yl)-phenyl-methyl]piperidine-1-carbonyl]-4H-1,4-benzoxazin-3-one], the half-maximal inhibitory concentration (IC50) was found to be 0.62 nM.

As to `Cn1ccc(C(c2ccccc2)C2CCN(C(=O)c3ccc4c(c3)NC(=O)CO4)CC2)cc1=O` (single isomer, unassigned) [Example 143, 6-[4-[(R or S)-(1-Methyl-2-oxo-4-pyridyl)-phenyl-methyl]piperidine-1-carbonyl]-4H-1,4-benzoxazin-3-one], the IC50 is 79.3 nM.

For the compound `O=C1COc2ccc(C(=O)N3CC(C(c4ccccc4)c4ccc(C(F)(F)F)cc4)C3)cc2N1` (centres unmarked) [Example 130, 6-[3-[Phenyl-[4-(trifluoromethyl)phenyl]methyl]azetidine-1-carbonyl]-4H-1,4-benzoxazin-3-one], inhibition was half-maximal at 85.3 nM (IC50).

Turning to `COc1cc(C(c2ccccc2)C2CCN(C(=O)c3ccc4c(c3)NC(=O)CO4)CC2)ccn1` (single isomer, unassigned) [Example 137, 6-[4-[(R or S)-(2-Methoxy-4-pyridyl)-phenyl-methyl]piperidine-1-carbonyl]-4H-1,4-benzoxazin-3-one], the IC50 is 0.24 nM.

Take `CS(=O)(=O)c1ccc(C(c2ccccc2)C2CCN(C(=O)c3ccc4c(c3)NC(=O)CO4)CC2)cc1` (single isomer, unassigned) [Example 133, 6-[4-[(R or S)-(4-Methylsulfonylphenyl)-phenyl-methyl]piperidine-1-carbonyl]-4H-1,4-benzoxazin-3-one]: the 50% inhibitory concentration (IC50) came to 25.1 nM.

`O=C1COc2ccc(C(=O)N3CC(C(c4ccccc4)c4ccccc4)C3)cc2N1` [Example 124, 6-(3-Benzhydrylazetidine-1-carbonyl)-4H-1,4-benzoxazin-3-one] registered an IC50 of 258 nM.

As to `COc1ccc(C(c2ccccc2)C2CCN(C(=O)c3ccc4c(c3)NC(=O)CO4)CC2)cc1OCCF` (single isomer, unassigned) [Example 135, 6-[4-[(R or S)-[3-(2-Fluoroethoxy)-4-methoxy-phenyl]-phenyl-methyl]piperidine-1-carbonyl]-4H-1,4-benzoxazin-3-one], the IC50 was 4.16 nM.

`Cn1ccc(C(c2ccccc2)C2CCN(C(=O)c3ccc4c(c3)NC(=O)CO4)CC2)cc1=O` (single isomer, unassigned) [Example 142, 6-[4-[(S or R)-(1-Methyl-2-oxo-4-pyridyl)-phenyl-methyl]piperidine-1-carbonyl]-4H-1,4-benzoxazin-3-one] yielded a 50% inhibitory concentration (IC50) of 0.66 nM.

Take `COc1cccc(C(c2ccccc2)C2CN(C(=O)c3ccc4c(c3)NC(=O)CO4)C2)c1` (centres unmarked) [Example 131, 6-[3-[(3-Methoxyphenyl)-phenyl-methyl]azetidine-1-carbonyl]-4H-1,4-benzoxazin-3-one]: the half-maximal inhibitory concentration (IC50) was 182 nM.

In turn, `Cn1cc(C(c2ccccc2)C2CCN(C(=O)c3ccc4c(c3)NC(=O)CO4)CC2)cn1` (single isomer, unassigned) [Example 141, 6-[4-[(R or S)-(1-Methylpyrazol-4-yl)-phenyl-methyl]piperidine-1-carbonyl]-4H-1,4-benzoxazin-3-one] came in with an IC50 of 6.68 nM.

`COc1cc(C(c2ccccc2)C2CCN(C(=O)c3ccc4c(c3)NC(=O)CO4)CC2)ccc1OCCF` (single isomer, unassigned) [Example 138, 6-[4-[(S or R)-[4-(2-Fluoroethoxy)-3-methoxy-phenyl]-phenyl-methyl]piperidine-1-carbonyl]-4H-1,4-benzoxazin-3-one] returned an IC50 of 9.41 nM.

`COc1cc(C(c2ccccc2)C2CCN(C(=O)c3ccc4c(c3)NC(=O)CO4)CC2)ccc1OCCF` (single isomer, unassigned) [Example 139, 6-[4-[(R or S)-[4-(2-Fluoroethoxy)-3-methoxy-phenyl]-phenyl-methyl]piperidine-1-carbonyl]-4H-1,4-benzoxazin-3-one] came in with an IC50 of 0.17 nM.

Turning to `COc1ccc(C(c2ccccc2)C2CCN(C(=O)c3ccc4c(c3)NC(=O)CO4)CC2)cc1OCCF` (single isomer, unassigned) [Example 134, 6-[4-[(S or R)-3-(2-Fluoroethoxy)-4-methoxy-phenyl-phenyl-methyl]piperidine-1-carbonyl]-4H-1,4-benzoxazin-3-one], half-maximal inhibition (IC50) was put at 0.11 nM.
